Measurements: the PolyMetriX glass transition set
± gives the standard deviation of the reports.

Row | Compound | glass transition temperature [°C]
1 | *Nc1cc(NC(=O)Nc2ccc(CCc3ccccc3NC(*)=O)cc2)ccc1C (repeat unit) | 227.00
2 | *CC(*)(C)C(=O)OCCOCCOc1ccc(/N=N/c2ccc(C#N)cc2)cc1 (repeat unit) | 57.00
3 | */C=C/C(C)C* (repeat unit) | -35.00
4 | */C(C#N)=C/c1cc(OCCCCCCCCCCCCCCCC)c(/C=C(\C#N)c2cc(OCCCCCCCCCCCCCCCC)c(*)cc2OC)cc1OC (repeat unit) | 190.00
5 | *c1cc(C)c(-c2c(C)cc(-n3c(=O)c4cc5c(=O)n(*)c(=O)c5cc4c3=O)cc2C)c(C)c1 (repeat unit) | 353.00
6 | *c1c(C)cc(-c2cc(C)c(N3C(=O)c4cccc(Oc5c(C)cc(-c6cc(C)c(Oc7cccc8c7C(=O)N(*)C8=O)c(C)c6)cc5C)c4C3=O)c(C)c2)cc1C (repeat unit) | 327.00
7 | *Oc1ccc(CC(NC(=O)CCc2ccc(OC(=O)CCCC(*)=O)cc2)C(=O)OCCOCCOCC)cc1 (repeat unit) | 21.00
8 | *Oc1ccc(Oc2ccc(C(=O)c3ccc(C(=O)c4ccc(*)cc4)cc3)cc2)cc1-c1ccc(S(=O)(=O)O)c(C)c1 (repeat unit) | 167.00
9 | *CCCCOc1ccc(-c2ccc(O*)c3ccccc23)c2ccccc12 (repeat unit) | 130.00
10 | *SCC(=O)N/N=C/c1ccc(OCCCCCCCCCCOc2ccc(/C=N/NC(=O)CSc3nnc(*)s3)cc2)cc1 (repeat unit) | 117.00
11 | *SC1CCCC(*)C1 (repeat unit) | -52.00
12 | *CCOc1ccc(S(=O)(=O)c2ccc(OCCOP(=O)(O*)Oc3ccc([N+](=O)[O-])cc3)cc2)cc1 (repeat unit) | 56.00
13 | *CCCCCCCCCCCCC(=O)O* (repeat unit) | -36.00
14 | *CC1CCCC(CNC(=O)CCCCC(=O)N*)C1 (repeat unit) | 107.00
15 | *Oc1ccc(C(=O)c2ccc(NC(=O)c3cccc(C(=O)Nc4ccc(C(=O)c5ccc(*)cc5)cc4)c3)cc2)cc1 (repeat unit) | 214.00
16 | *C([2H])([2H])C(*)([2H])C([2H])=C([2H])[2H] (repeat unit) | 1.00
17 | *Oc1ccc(C2(c3ccc(Oc4ccc5c(=O)n6c7cc(-c8ccc9c(c8)nc8c%10ccc(*)c%11cccc(c(=O)n98)c%11%10)ccc7nc6c6cccc4c56)cc3)c3ccccc3-c3ccccc32)cc1 (repeat unit) | 421.00
18 | *CC(*)(CC(=O)OC1CCCCC1)C(=O)OC1CCCCC1 (repeat unit) | 142.00
19 | *c1ccc(Oc2ccc(Oc3ccc(Oc4ccc(-c5cnc6ccc(-c7ccc8ncc(*)nc8c7)cc6n5)cc4)cc3)cc2)cc1 (repeat unit) | 216.00
20 | *Oc1ccc(C2(c3ccc(OC(*)=O)c(Cl)c3)CC3CCC2C3)cc1Cl (repeat unit) | 200.00
21 | *c1ccc(-c2ccc(-c3nc4ccc(-c5ccc6nc(*)c(-c7ccccc7)c(-c7ccccc7)c6c5)cc4c(-c4ccccc4)c3-c3ccccc3)cc2)cc1 (repeat unit) | 420.00
22 | */C=C/c1cc(CCCCCCCCCCCCCCCC)c(/C=C/c2nc(*)c(C#N)c(/C=C/c3ccc(N(c4ccccc4)c4ccccc4)cc3)c2C#N)cc1CCCCCCCCCCCCCCCC (repeat unit) | 165.00
23 | *CCCCC(=O)O* (repeat unit) | -66.00

Row | Compound | glass transition temperature [°C]
24 | *c1ccc(Oc2ccc(N3C(=O)c4ccc(Oc5ccc6cc(Oc7ccc8c(c7)C(=O)N(*)C8=O)ccc6c5)cc4C3=O)cc2)cc1 (repeat unit) | 249.00
25 | *Oc1ccc(Oc2ccc(C(=O)c3ccc(*)c(S(=O)(=O)O)c3)cc2S(=O)(=O)O)cc1S(=O)(=O)O (repeat unit) | 248.00
26 | *=NP(=NP(=NC(=*)Oc1ccc(Br)cc1)(Oc1ccc(Br)cc1)Oc1ccc(Br)cc1)(Oc1ccc(Br)cc1)Oc1ccc(Br)cc1 (repeat unit) | 45.00
27 | */C=C/C1CC(*)C2C(=O)N(CCCCCCCCC)C(=O)C12 (repeat unit) | 52.00
28 | *Oc1ccc(OC(=O)c2ccc(C(*)=O)cc2Oc2ccc3ccccc3c2)cc1 (repeat unit) | 102.00
29 | */C=C/C1CC(*)C([Si](C)(C)C)C1 (repeat unit) | 113.00
30 | *OC(=O)C(Cc1ccccc1)NC(=O)CCCCCCCCCCC(=O)NC(Cc1ccccc1)C(=O)OC1COC2C(*)COC12 (repeat unit) | 76.00
31 | *C(*)C(=O)OC(C)C (repeat unit) | 70.00
32 | *c1ccc(C(c2ccccc2)c2ccc(N(*)c3ccc(C)cc3)cc2)cc1 (repeat unit) | 199.00
33 | *CCCCCCNC(=O)c1ccc(C(=O)N*)cc1 (repeat unit) | 132.50
34 | *CCCCCOC(=O)NNC(=O)CCCCCCCCC(=O)NNC(=O)O* (repeat unit) | 20.00
35 | *C1OCCCC1C1C(=O)OC(=O)C1* (repeat unit) | 210.00
36 | *OC(C)C(=O)OCC(*)=O (repeat unit) | 43.00
37 | *c1cc(CC(=O)OCC)c(*)s1 (repeat unit) | 56.70
38 | *CCCCOC(=O)NNC(=O)CCCCCCCCC(=O)NNC(=O)O* (repeat unit) | 56.00
39 | *CC(*)(C)C(=O)OCCOc1ccc(-c2ccc(-c3ccc(C#N)cc3)cc2)cc1 (repeat unit) | 115.00
40 | *Oc1ccc(Oc2ccc(C(=O)c3cccc(C(=O)c4ccc(*)cc4)c3)cc2)cc1S(=O)(=O)O (repeat unit) | 195.00
41 | *c1ccc2c(c1)C(=O)N(c1ccccc1Oc1ccc(N3C(=O)c4ccc(C(*)(C(F)(F)F)C(F)(F)F)cc4C3=O)cc1)C2=O (repeat unit) | 276.00
42 | *c1ccc(Oc2ccc(S(=O)(=O)c3ccc(Oc4ccc(-c5c6c(c(*)c7ccccc57)C(=O)N(c5ccccc5)C6=O)cc4)cc3)cc2)cc1 (repeat unit) | 310.00
43 | *OC(=O)C(C)NC(=O)CCCCCCCCC(=O)NC(C)C(=O)OC1COC2C(*)COC12 (repeat unit) | 57.00
44 | *CC(*)(C)C(=O)Oc1ccc(OCc2ccccc2)cc1 (repeat unit) | 95.30
45 | *c1ccc(Oc2ccc(-c3ccc(Oc4ccc(-n5c(=O)c6cc7c(=O)n(*)c(=O)c7cc6c5=O)cc4)cc3)cc2)cc1 (repeat unit) | 300.00
46 | *c1ccc(Sc2ccc(Sc3ccc(N4C(=O)c5ccc(Sc6ccc(Sc7ccc(Sc8ccc9c(c8)C(=O)N(*)C9=O)cc7)cc6)cc5C4=O)cc3)cc2)cc1 (repeat unit) | 190.8

Row | Compound | glass transition temperature [°C]
47 | *Oc1cccc(NC(=O)c2ccc(P(=O)(c3ccccc3)c3ccc(C(=O)Nc4cccc(Oc5ccc(P(=O)(c6ccccc6)c6ccc(*)cc6)cc5)c4)cc3)cc2)c1 (repeat unit) | 235.00
48 | *c1ccc(-c2ccc(-n3c(-c4ccc(Oc5ccc(C(=O)c6ccc(Oc7ccc(C(=O)c8ccc(Oc9ccc(-c%10nc%11ccccc%11n%10*)cc9)cc8)cc7)cc6)cc5)cc4)nc4ccccc43)cc2)cc1 (repeat unit) | 243.00
49 | *CCN(CCOC(=O)Nc1ccc(-c2ccc(NC(=O)O*)c(OC)c2)cc1OC)c1ccc(/N=N/c2ccc([N+](=O)[O-])cc2)cc1 (repeat unit) | 140.00
50 | *CCCCCCOC(=O)c1cc(/N=N/c2ccc(OCC)cc2)ccc1-c1ccc(/N=N/c2ccc(OCC)cc2)cc1C(=O)O* (repeat unit) | 83.00
51 | *CC(*)C(=O)OC12CC3CC(C)(CC(C)(C3)C1)C2 (repeat unit) | 104.00
52 | *O[Si](*)(C)CCCOc1ccc(C(=O)Oc2ccc(-c3ccc(OC(=O)c4cc(OCC)c(OCC)c(OCC)c4)cc3)cc2)cc1 (repeat unit) | 61.30
53 | *OC(=O)c1cccc(C(=O)Oc2ccc3c(c2)Oc2cc(*)ccc2C32OC(=O)c3ccccc32)c1 (repeat unit) | 276.00
54 | *CCCCCCCCCN1C(=O)c2ccc(Oc3ccc4c(c3)C(=O)N(*)C4=O)cc2C1=O (repeat unit) | 89.00
55 | *Oc1ccc(Oc2ccc(Oc3ccc(C(=O)c4ccc(*)cc4)cc3)cc2)cc1 (repeat unit) | 150.50
56 | *c1cccc(P(=O)(c2ccccc2)c2cccc(-n3c(=O)c4cc5c(=O)n(*)c(=O)c5c(-c5cc(C(F)(F)F)cc(C(F)(F)F)c5)c4c3=O)c2)c1 (repeat unit) | 299.00
57 | *CCCO* (repeat unit) [Polyoxytrimethylene ] | -78 ± 3
58 | *CC(*)c1ccc(CCCCCCCCCCCC)cc1 (repeat unit) | -52.00
59 | *Oc1ccc(Oc2ccc(C(=O)c3ccc(*)cc3)cc2)cc1-c1ccccc1 (repeat unit) | 157.00
60 | *c1ccc(Oc2ccc(-c3c(-c4ccccc4)c(-c4ccc(-c5nc6ccccc6c(*)c5-c5ccccc5)cc4)nc4ccccc34)cc2)cc1 (repeat unit) | 273.00
61 | *CCC1CC(*)C2CCCC12 (repeat unit) | 101.00
62 | *Oc1ccc(CC(NC(=O)Cc2ccc(OC(=O)CCCCC(*)=O)cc2)C(=O)OCCCCCCCC)cc1 (repeat unit) | 28.00
63 | *CC(S*)c1ccccc1 (repeat unit) | -2.50
64 | *CC(*)OC(=O)C1(F)C(F)(F)C(F)(F)C(F)(F)C(F)(F)C1(F)F (repeat unit) | 54.00
65 | *CCCCCCCCCCNC(=O)CCCCCCCCC(=O)N* (repeat unit) | 60.00
66 | *c1ccc(Oc2ccc(Oc3ccc(N4C(=O)c5ccc(-c6ccc7c(c6)C(=O)N(*)C7=O)cc5C4=O)cc3)c(C)c2)cc1 (repeat unit) | 265.00
67 | *c1ccc2c(c1)C(=O)N(c1cc(C)c(-c3c(C)cc(N4C(=O)c5ccc(C(*)(C(F)(F)F)C(F)(F)F)cc5C4=O)cc3C)c(C)c1)C2=O (repeat unit) | 346.00
68 | *Nc1ccc(NC(=O)c2ccc(C(c3ccc(C(*)=O)c(C(=O)OCC)c3)(C(F)(F)F)C(F)(F)F)cc2C(=O)OCC)cc1 (repeat unit) | 270.00
